PubChem BioAssay (NCI)
“And” between values parts separate entries of the source, which are not always exact repeats. Identical values can stand only once.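 48-hour exposure; five concentrations; linearly interpolated endpoints. Abbreviation: GI50, concentration required for 50% inhibition of growth. TGI: total growth inhibition.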

What was measured:
Experiment in all cases: NCI-60 cell line screen, 48 h
[1] = system: KM20L2 colon
[2] = system: HOP-18 NSCLC
[3] = system: SNB-78 CNS
[4] = system: XF 498 CNS
[5] = system: BT-549 breast
[6] = system: DU-145 prostate
[7] = system: PC-3 prostate
[8] = system: MDA-N

| SMILES | GI50 [1] [µM] | TGI [1] | GI50 [2] [µM] | TGI [2] | TGI [3] [µM] | TGI [4] | GI50 [5] [µM] | TGI [5] [µM] | GI50 [6] [µM] | TGI [6] [µM] | GI50 [7] [µM] | TGI [7] [µM] | GI50 [3] [µM] | TGI [8] [µM] |
| --- | --- | --- | --- | --- | --- | --- | --- | --- | --- | --- | --- | --- | --- | --- |
| CC(=O)[CH-]C(=O)c1ccccc1.CC(=O)[CH-]C(=O)c1ccccc1.[O-]c1ccc(O)cc1.[O-]c1ccc(O)cc1.[Ti+4] | 24.5 | 66.9 µM | 27.1 | 72.2 µM | – | – | – | – | – | – | – | – | – | – |
| c1ccc2c(c1)[Se]c1ccccc1[Se]2 | – | > 100 µM | – | 98.6 µM | > 100 | > 100 µM | – | – | – | – | – | – | – | – |
| COc1ccc(/C=C2/CCOC2=O)cc1 | – | – | – | – | – | – | > 100 | > 100 | > 100 | > 100 | > 100 | > 100 | – | – |
| CC(=O)OC1C(O)COC(Oc2c(C)c3c4c(c2O)[C@@H](C)CC[C@@H]4[C@@H](C)C[C@H]3C=C(C)C)C1O (some centres undefined) | – | – | – | – | – | – | – | – | 12.8 | 29 | 11.3 | 26.3 | – | – |
| COc1ccc(CNCCCN2C(=O)c3ccc4c5c(ccc(c35)C2=O)C(=O)N(CCCNCCCCNCCCN)C4=O)c(OC)c1OC | – | – | – | – | – | – | 6.13 | 21.5 | 1.55 | 3.44 | 2.4 | 26.3 | – | – |
| CCC(=O)[O-].CCC(=O)[O-].N.N.N.N.[Co+3].[O-][Cl+3]([O-])([O-])[O-] | > 100 | > 100 µM | – | – | > 100 | – | – | – | – | – | – | – | > 100 | – |
| C=C(C)[C@@H]1CC[C@]2(C)[C@H](CC=C3[C@@H]4CC(C)(C)CC[C@]4(C(=O)OC)CC[C@]32C)[C@@]1(C)CC/C(N)=N/O | – | – | – | – | – | – | 1.93 | 4.12 | 1.95 | 4.28 | 1.91 | 7.81 | – | – |
| CCCCCCCCOC(=O)c1cc(O)c(O)c(O)c1 | – | – | – | – | – | – | 2.08 | 14.2 | 2.84 | 14 | 2.02 | 20.5 | – | – |
| CCOc1ccc2c(-c3ccnc(Nc4cccc(C(F)(F)F)c4)n3)cnn2n1 | – | – | – | – | – | – | > 23.8 | > 25 | > 19.5 | > 25 | > 16.1 | > 25 | – | – |
| O=C1c2ccccc2C(=O)c2c1c(NCCNCCO)c1cc[nH]c1c2NCCNCCO | – | – | – | – | – | – | 2.75 | 8.94 | 3.31 | > 59 | 3.22 | > 25.6 | – | – |
| COc1cccc(C(=O)O)c1Cc1cccc2ccccc12 | – | > 100 µM | – | > 100 µM | – | – | – | – | – | – | – | – | – | – |
| COc1cc(C)c(N(C)C(=O)CN(C)C)cc1Nc1nc(Nc2cccc(F)c2C(N)=O)c2cc[nH]c2n1 | – | – | – | – | – | – | 18.4 | > 25 | > 25 | > 25 | > 25 | > 25 | – | – |
| COc1ccc(-c2ccc(=O)oc2-c2cc(OC)c(OC)c(OC)c2)cc1O | – | – | – | – | – | – | 0.0919 | > 100 | 0.0297 | – | 0.0183 | > 100 | – | – |
| CP(=O)(CCSc1ccccc1)c1ccccc1 (centres undefined) | – | > 100 µM | – | > 100 µM | > 100 | > 100 µM | – | – | – | – | – | – | – | – |
| O=c1c2ccccc2c(C=NCCNCCO)c2oc3ccccc3n12 | – | – | – | – | – | – | – | – | 12.1 | 24.5 | 13.9 | 34.1 | – | – |
| CN([N-]C(=O)CC(=O)[N-]N(C)C(=S)c1ccccc1)C(=S)c1ccccc1.[Cu+2] | – | – | – | – | – | – | 0.138 | 0.271 | 0.033 | 0.133 | 0.0101 | 0.0689 | – | – |
| NCC(=O)OCN1C(=O)C2C3C=CC(C2C1=O)C1C2C(=O)N(COC(=O)CN)C(=O)C2C31 (centres undefined) | – | 52.9 µM and 81.9 µM | – | 54.4 µM and 73.7 µM | > 100 | 54.7 µM and 64.1 µM | – | – | – | – | – | – | – | – |
| C=C(C)[C@@H]1CC[C@]2(c3ncc(C)o3)CC[C@]3(C)[C@H](CC[C@@H]4[C@@](C)(CCC#N)[C@H](C(=C)C)CC[C@]43C)[C@@H]12 | – | – | – | – | – | – | 14.4 | 29.2 | 3.54 | 13.2 | 1.83 | 4 | – | – |
| COc1cccc(NC(=O)c2ccc(C(F)(F)F)nc2Nc2ccc(Cl)cc2C)c1 | – | – | – | – | – | – | 14.1 | 28.4 | 15 | 28.3 | 4.36 | 17.9 | – | – |
| N#C/C(=C/c1cccs1)c1cccs1 | – | – | – | – | – | – | – | – | > 100 | > 100 | > 100 | > 100 | – | – |
| CCCN(CCC)c1ccc(C=O)c(OC)c1 | – | – | – | – | – | – | 22 | 80.2 | 26.6 | > 100 | 29.1 | > 100 | – | – |
| CN1CCN(c2ccc3nc(-c4ccc5nc(-c6ccc(C(F)(F)F)cc6)[nH]c5c4)[nH]c3c2)CC1 | – | – | – | – | – | – | 5.91 | 22.5 | 1.76 | 3.25 | 1.66 | 3.79 | – | – |
| Cc1ccc2nc(NC(=O)CSC(=S)N3CCN(Cc4ccccc4)CC3)sc2c1 | – | – | – | – | – | – | > 100 | > 100 | > 100 | > 100 | > 100 | > 100 | – | – |
| COc1cc2c3c(n(CCCn4cccn4)c(=O)c2cc1OC)-c1cc2c(cc1C3=O)OCO2 | – | – | – | – | – | – | 3.4 | > 70 | 0.437 | 5.57 | 16.3 | > 100 | – | – |
| CCCCCn1ncc(-c2c(O)c(O)cc3c(O)c(-c4c(C)cc5c(-c6cnn(CCCCC)n6)c(O)c(O)cc5c4O)c(C)cc23)n1 | – | – | – | – | – | – | 0.0913 | 5.09 | 0.0647 | 6.02 | 0.147 | 2.53 | – | – |
| COc1cc([N+](=O)[O-])c(S(=O)(=O)O)cc1-n1nc(-c2ccccc2)n[n+]1-c1cc(S(=O)(=O)[O-])c([N+](=O)[O-])cc1OC | – | – | – | – | – | – | – | – | – | > 100 | – | > 100 | – | > 100 |
| CCN(CCc1ccc(F)cc1)c1ccc(CO)c(Cl)c1 | – | – | – | – | – | – | 11.4 | 23.8 | 14.4 | 29.2 | 10.9 | 24.8 | – | – |
| Nc1nc(N)c2ncn(Cc3c(Cl)cccc3Cl)c2n1 | – | – | – | – | – | – | – | > 100 | – | > 100 | – | > 100 | – | > 100 |
| CC1=C(CC/C(C)=C/CCC2(C)CCC([C@H](C)C(=O)O)OO2)C(C)(C)CCC1 (some centres undefined) (tested in a mixture with another compound) | – | > 100 µM | – | – | > 100 | – | – | – | – | – | – | – | – | – |
